Results from paper PMC9607537, “Understanding the Antilymphoma Activity of Annona macroprophyllata Donn and Its Acyclic Terpenoids: In Vivo, In Vitro, and In Silico Studies” (Molecules, 2022).
Where two headings read alike, the source gives them in different places.

Assays:
[1] = test system: lymph node growth in mice inoculated with U-937 cells; experiment: Antilymphoma activity in Balb/c mice inoculated with U-937 cells; assay type: in vivo; settings: oral, 9 days treatment, mean ± SEM, n = 6; for ED50 Female (inhibition of lymph node growth): female Balb/c mice inoculated with U-937 cells; for ED50 Male (inhibition of lymph node growth): male Balb/c mice inoculated with U-937 cells
Source text: We induced lymphoma following the method of Calzada et al.. We randomly formed fifteen groups of male mice and of female mice (n = 6). […] After cell inoculation, we observed all animals for the following 28 days, after which we orally administered treatments for 9 days. Over the following 28 days, we recorded the weight and survival of the animals. Finally, at day 65, we sacrificed the animals and removed and weighed the left and right axillary and inguinal lymph nodes.

U-937 cells = experiment: cells; settings: read-out: CC50 (median cytotoxic concentration causing 50% cell death)
Procedure: The cell line U-937 was acquired (ATCC: CRL 1593.2, Middlesex, UK) and characterized as a type of diffuse monocytic NHL; for its propagation two million cells were used and seeded in RPMI 1640 medium (Roswell Park Memorial Institute) supplemented with 2 mM L-glutamine, 10% v/v fetal bovine serum (Thermo), 100 mM 1% sodium pyruvate, and 1% penicillin/streptomycin. The cells were kept in an atmosphere with a concentration of carbon dioxide (CO2) at 5% at 37 °C.
We evaluated the in vitro cytotoxic activity using the cell proliferation reagent WST-1, based on the cleavage of tetrazolium salts to formazan by the enzyme mitochondrial dehydrogenase. For cell proliferation, the Quick Cell Proliferation Kit II (Abcam, Cambridge, UK, Cat. No. ab65475) was used, 96-well plates were used and 2 × 10^5 cells per well were seeded in a final volume of 100 µL/well of culture medium. […] After 24 h, viability was assessed by the addition of 10 µL of WST-1 reagent and the cells were further incubated for 2 h at 37 °C and 5% CO2. Finally, the absorbance at 440 nm was measured using a microplate reader.

Balb/c mice = experiment: in vivo; settings: for TI Female (therapeutic index, LD50/ED50) / TI Male (therapeutic index, LD50/ED50): LD50 acute oral toxicity / ED50 antilymphoma activity; for TI Female (therapeutic index, LD50/ED50): female mice; for OECD acute systemic toxicity category: acute oral toxicity, OECD guideline 423; for OECD acute systemic toxicity category / Mortality in acute oral toxicity test: mice; for Mortality in acute oral toxicity test: until end of study (14 days); for TI Male (therapeutic index, LD50/ED50): male mice
Procedure: (§1) Twenty-four female mice of the Balb/c strain were randomly used to form 8 groups (n = 3). […] The control group was administered with only the vehicle (Tween 80 at 2% in water) and for the compounds, doses of 500 and 1000 mg kg^−1 were administered. […] Subsequently, we sacrificed the animals and extracted the organs (stomach, intestines, spleen, liver, and kidneys) were extracted, reporting the pathological changes, if any.

in vivo = settings: female, Balb/c, mouse, in vivo, po
Procedure: as §1

Artemia salina larvae = experiment: Brine shrimp lethality (BSL) test; assay type: in vivo; settings: mortality at 24 h, mean ± SEM
Procedure: To obtain the LD50 of the thirteen compounds isolated by TLC, we performed the brine shrimp assay according to the procedure described by Meyer et al.. We exposed groups of 10 shrimp in brine to concentrations of 0.5, 1, 5, 10 µg mL^−1 of each product (P1-P13). The concentrations were reached by dissolving the compounds in 2 mL of ethanol, subsequently transferring to different flasks. After evaporating the solvent at room temperature, we introduced the BS and adjusted the volume with artificial seawater to 5 mL. We performed this test in triplicate for each compound.

U-937 cell line = test system: U-937 cell line; design: method as in PMID 34638856; settings: viability analysis by flow cytometry; cited from earlier work

## CC(C)=CCC/C(C)=C/CC/C(C)=C/CC/C(C)=C/CO [Gg, (2E,6E,10E)-3,7,11,15-tetramethylhexadeca-2,6,10,14-tetraen-1-ol]
[1]
  ED50 Female (inhibition of lymph node growth): 7.22 ± 0.51 mg/kg
  ED50 Male (inhibition of lymph node growth): 6.98 ± 0.57 mg/kg
U-937 cells; Homo sapiens, U-937, 24 h
  CC50: 395 ± 5 µM
Balb/c mice
  TI Female (therapeutic index, LD50/ED50): 138.5
  OECD acute systemic toxicity category: category 4 (category 4, low risk > 300 and ≤2000 mg/kg)
  TI (therapeutic index) in both sexes: > 100
Balb/c mice; single oral dose
  Mortality in acute oral toxicity test: caused death in the animals
In vivo
  LD50 at 14 days: 742.17 ± 0.34 mg/kg
Artemia salina larvae; n = 3
  LD50 (median lethal dose causing 50% of A. salina death): 1.41 ± 0.42 µg/mL

## (2E,7R,11R)-3,7,11,15-tetramethylhexadec-2-en-1-ol [PT]
[1]
  ED50 Female (inhibition of lymph node growth): 6.71 ± 0.31 mg/kg
  ED50 Male (inhibition of lymph node growth): 5.83 ± 0.50 mg/kg
U-937 cells; U-937 cells, 24 h exposure, WST-1, mean ± SEM, n = 3
  CC50: 296 ± 70 µM
Balb/c mice
  TI Female (therapeutic index, LD50/ED50): 149.03
  TI Male (therapeutic index, LD50/ED50): 171.52
  OECD acute systemic toxicity category: category 4 (category 4, low risk > 300 and ≤2000 mg/kg)
  TI (therapeutic index) in both sexes: > 100
Balb/c mice; female Balb/c mice, single oral dose, 14 days observation, n = 3
  LD50 (median lethal dose, acute oral toxicity): >1000 mg/kg
Balb/c mice; single oral dose
  Mortality in acute oral toxicity test: did not cause mortality
Artemia salina larvae; n = 3
  LD50 (median lethal dose causing 50% of A. salina death): 3.03 ± 0.33 µg/mL

## CN(Cc1cnc2nc(N)nc(N)c2n1)c1ccc(C(=O)N[C@@H](CCC(=O)O)C(=O)O)cc1 [MTX, methotrexate, reference compound]
[1]
  ED50 Female (inhibition of lymph node growth): 1.31 ± 0.34 mg/kg
  ED50 Male (inhibition of lymph node growth): 0.99 ± 0.024 mg/kg
U-937 cells; Homo sapiens, U-937, 24 h
  CC50: 243 ± 7 µM
In vivo
  LD50 at 14 days: 335 ± 0.39 mg/kg
U-937 cell line
  CC50: 500 nM

## CC(=O)OC/C=C(\C)CC/C=C(\C)CCC=C(C)C [FA, [(E,E)-3,7,11-trimethyldodeca-2,6,10-trienyl] acetate]
[1]
  ED50 Female (inhibition of lymph node growth): 5.89 ± 0.39 mg/kg
  ED50 Male (inhibition of lymph node growth): 5.09 ± 0.66 mg/kg
U-937 cells; Homo sapiens, U-937, 24 h
  CC50: 275 ± 80 µM
Balb/c mice
  TI Female (therapeutic index, LD50/ED50): 169.77
  TI Male (therapeutic index, LD50/ED50): 196.46
  OECD acute systemic toxicity category: category 4 (category 4, low risk > 300 and ≤2000 mg/kg)
  TI (therapeutic index) in both sexes: > 100
Balb/c mice; single oral dose
  Mortality in acute oral toxicity test: did not cause mortality
In vivo
  LD50 at 14 days: > 1000 mg/kg
Artemia salina larvae; n = 3, listed as AF
  LD50 (median lethal dose causing 50% of A. salina death): 5.82 ± 0.58 µg/mL
Artemia salina larvae; n = 3, listed as FA (P10)
  LD50 (median lethal dose causing 50% of A. salina death): 5.82 ± 0.58 µg/mL
